Results from PMC9014410, “Discovery of V-0219: A Small-Molecule Positive Allosteric Modulator of the Glucagon-Like Peptide-1 Receptor toward Oral Treatment for “Diabesity”” (Journal of Medicinal Chemistry, 2022).
Values joined by “and” are separate entries in the source; they are usually repeats but may differ in a detail not shown here. Equal entries are not always repeated. “Also recorded” adds a separate entry of the source.

Columns and labels:
INS-1 β-cells = test: Insulin secretion by rat INS-1 / INS-1E insulinoma cells; type: cell-based; details: INS-1E cells, 0.5 mM glucose, single representative experiment
Experimental: The incubation was done using two types of culture media, defined as low glucose (0.5–3 mM) and high glucose (15 mM). […] Incubation with compounds lasted 30 min, and then the media was collected, centrifuged at 4 °C for 2 min until assayed for insulin using commercial ELISA kit.

EndoC-βH1 cells = test: Insulin secretion by human pancreatic EndoC-βH1 cells; type: cell-based; details: high glucose concentration
Experimental: Both cell lines were cultured in RPMI 1640 medium supplemented with 10% fetal calf serum as described. Cell monolayers were incubated at 37 °C in a 7.5% CO2 atmosphere. For insulin secretion studies, cells were detached, washed once with glucose-free medium and placed in 48 multiwell plates (100,000 cells per well) and kept in glucose-free medium for 1.5 h prior to incubation with drugs. The incubation was done using two types of culture media, defined as low glucose (0.5–3 mM) and high glucose (15 mM). […] Incubation with compounds lasted 30 min, and then the media was collected, centrifuged at 4 °C for 2 min until assayed for insulin using commercial ELISA kit.

Wistar rats = test: Glucose tolerance test in Wistar rats; type: in vivo, rat; details: (S)-9 0.04 and 0.2 mg/kg ip; ip 2 g/kg glucose
Experimental: (§1) Glucose tolerance test was carried out both in Wistar and Zucker (fa/fa) obese male rats and in wild-type and GLP-1R KO mice, by injecting an ip glucose load of 2 g/kg body weight (diluted in saline) or by oral administration of a glucose solution (2 g/kg in a volume of water of […] body weight). Animals were food-deprived overnight (12 h fasting) before testing. Thirty minutes before glucose load, animals received by ip administration the compound being tested dissolved in saline/DMSO (0.2%) as vehicle. Tail blood samples were collected before (0 min) and 5, 10, 15, 30, 45, 60, and 120 min after glucose administration. Glucose was determined using a commercial glucometer (Accu-check, Roche Diagnostic).

[1] = test system: Zucker (fa/fa) obese male rats; test: Glucose tolerance test in diabetic fatty Zucker rats; type: in vivo, rat; details: (S)-9 0.4 mg/kg intragastrically; ip 2 g/kg glucose
wild-type C57BL/6N mice = test: Glucose tolerance test in wild-type mice; type: in vivo, mouse
Experimental: as §1

GLP-1R KO mice = test: Glucose tolerance test in GLP-1R KO mice; type: in vivo, mouse; details: (S)-9; 2 g/kg glucose
Experimental: as §1

male Wistar rats [2] = test: Feeding inhibition in 12-h fasted male Wistar rats (icv)
hGLP-1R = hGLP-1R (Homo sapiens, UniProt P43220); test: Calcium mobilization / calcium fluxes in HEK cells stably expressing hGLP-1R (ExviTech flow cytometry); details: 10 μM compound, then EC25 of GLP-1
panel of 54 GPCRs = test: Selectivity panel of binding assays (Eurofins Cerep); details: 10 μM; all 54 receptors
Source text: (§2) 3. Binding to off-target receptors
(§3) Eurofins Cerep (France). Significant binding affinity was defined as a displacement of target
selective radioligand greater than 50% using a concentration of 10 µM of 9. […]

male Wistar rats [3] = test: Anxiety-like behavior in the elevated plus-maze; type: in vivo, rat; details: 9 1 and 0.5 mg/kg ip
Experimental: Animals naïve to the maze were manipulated for 7 days before testing. The day of the experiment, 30 min after ip injection of 9, animals were placed in the center of the maze, facing an open arm. The number of entries and the % of time spent in the exposed arms of the maze were measured. Test length was 5 min and animals were not retested.

[4] = Microsomal stability test as summarised in the text (species not given in the sentence); type: in vitro ADME; details: rat, dog, human, liver microsomes; text summary of Table S6; read-out: half-life time in a microsomal stability test
CYP2C9 = CYP2C9 (Homo sapiens, UniProt P11712); test: P450 cytochrome inhibition, CYP2C9; type: in vitro ADME
Experimental: Inhibition of P450 cytochrome isoforms. […] Effect on hERG channel. […] Patch clamp experiments were carried out using […]® robot. […] After S27

[5] = In vivo pharmacokinetic study in male Sprague Dawley rats; details: rat, plasma
A1 (h) = biological target: T1, A1 (h) (Homo sapiens, UniProt P30542); test: biochemical; design: radioligand displacement binding panel (Eurofins Cerep), % inhibition of control specific binding; details: antagonist radioligand; read-out: % Inhibition of Control Specific Binding
T1 construct: gene ADORA1
Source text: as §2, §3
(§4) selective radioligand greater than 50% using a concentration of 10 µM of 9.

A2A (h) = biological target: T2, A2A (h) (Homo sapiens, UniProt P29274); test: biochemical; design: radioligand displacement binding panel (Eurofins Cerep), % inhibition of control specific binding; details: agonist radioligand; read-out: % Inhibition of Control Specific Binding
T2 construct: gene ADORA2A
Source text: as §2, §3, §4

A3 (h) = biological target: T3, A3 (h) (Homo sapiens, UniProt P0DMS8); test: biochemical; design: radioligand displacement binding panel (Eurofins Cerep), % inhibition of control specific binding; details: agonist radioligand; read-out: % Inhibition of Control Specific Binding
T3 construct: gene ADORA3
Source text: as §2, §3, §4

B2 (h) = biological target: T4, B2 (h) (Homo sapiens, UniProt P30411); test: biochemical; design: radioligand displacement binding panel (Eurofins Cerep), % inhibition of control specific binding; details: agonist radioligand; read-out: % Inhibition of Control Specific Binding
T4 construct: gene BDKRB2
Source text: as §2, §3, §4

CCR1 (h) = CCR1 (h) (Homo sapiens, UniProt P32246); test: biochemical; design: radioligand displacement binding panel (Eurofins Cerep), % inhibition of control specific binding; details: agonist radioligand; read-out: % Inhibition of Control Specific Binding
Source text: as §2, §3, §4

GAL2 (h) = biological target: T5, GAL2 (h) (Homo sapiens, UniProt O43603); test: biochemical; design: radioligand displacement binding panel (Eurofins Cerep), % inhibition of control specific binding; details: agonist radioligand; read-out: % Inhibition of Control Specific Binding
T5 construct: gene GALR2
Source text: as §2, §3, §4

H1 (h) = biological target: T6, H1 (h) (Homo sapiens, UniProt P35367); test: biochemical; design: radioligand displacement binding panel (Eurofins Cerep), % inhibition of control specific binding; details: antagonist radioligand; read-out: % Inhibition of Control Specific Binding
T6 construct: gene HRH1
Source text: as §2, §3, §4

H2 (h) = biological target: T7, H2 (h) (Homo sapiens, UniProt P25021); test: biochemical; design: radioligand displacement binding panel (Eurofins Cerep), % inhibition of control specific binding; details: antagonist radioligand; read-out: % Inhibition of Control Specific Binding
T7 construct: gene HRH2
Source text: as §2, §3, §4

MT1 (ML1A) (h) = biological target: T8, MT1 (ML1A) (h) (Homo sapiens, UniProt P48039); test: biochemical; design: radioligand displacement binding panel (Eurofins Cerep), % inhibition of control specific binding; details: agonist radioligand; read-out: % Inhibition of Control Specific Binding
T8 construct: gene MTNR1A
Source text: as §2, §3, §4

NK2 (h) = biological target: T9, NK2 (h) (Homo sapiens, UniProt P21452); test: biochemical; design: radioligand displacement binding panel (Eurofins Cerep), % inhibition of control specific binding; details: agonist radioligand; read-out: % Inhibition of Control Specific Binding
T9 construct: gene TACR2
Source text: as §2, §3, §4

NK3 (h) = biological target: T10, NK3 (h) (Homo sapiens, UniProt P29371); test: biochemical; design: radioligand displacement binding panel (Eurofins Cerep), % inhibition of control specific binding; details: antagonist radioligand; read-out: % Inhibition of Control Specific Binding
T10 construct: gene TACR3
Source text: as §2, §3, §4

β1 (h) = biological target: T11, β1 (h) (Homo sapiens, UniProt P08588); test: biochemical; design: radioligand displacement binding panel (Eurofins Cerep), % inhibition of control specific binding; details: agonist radioligand; read-out: % Inhibition of Control Specific Binding
T11 construct: gene ADRB1
Source text: as §2, §3, §4

hERG channel = hERG channel (Homo sapiens, UniProt Q12809); test: hERG channel inhibition, whole cell patch clamp in hERG-transfected CHO cells
Chain of hERG channel (Q12809 whole entry): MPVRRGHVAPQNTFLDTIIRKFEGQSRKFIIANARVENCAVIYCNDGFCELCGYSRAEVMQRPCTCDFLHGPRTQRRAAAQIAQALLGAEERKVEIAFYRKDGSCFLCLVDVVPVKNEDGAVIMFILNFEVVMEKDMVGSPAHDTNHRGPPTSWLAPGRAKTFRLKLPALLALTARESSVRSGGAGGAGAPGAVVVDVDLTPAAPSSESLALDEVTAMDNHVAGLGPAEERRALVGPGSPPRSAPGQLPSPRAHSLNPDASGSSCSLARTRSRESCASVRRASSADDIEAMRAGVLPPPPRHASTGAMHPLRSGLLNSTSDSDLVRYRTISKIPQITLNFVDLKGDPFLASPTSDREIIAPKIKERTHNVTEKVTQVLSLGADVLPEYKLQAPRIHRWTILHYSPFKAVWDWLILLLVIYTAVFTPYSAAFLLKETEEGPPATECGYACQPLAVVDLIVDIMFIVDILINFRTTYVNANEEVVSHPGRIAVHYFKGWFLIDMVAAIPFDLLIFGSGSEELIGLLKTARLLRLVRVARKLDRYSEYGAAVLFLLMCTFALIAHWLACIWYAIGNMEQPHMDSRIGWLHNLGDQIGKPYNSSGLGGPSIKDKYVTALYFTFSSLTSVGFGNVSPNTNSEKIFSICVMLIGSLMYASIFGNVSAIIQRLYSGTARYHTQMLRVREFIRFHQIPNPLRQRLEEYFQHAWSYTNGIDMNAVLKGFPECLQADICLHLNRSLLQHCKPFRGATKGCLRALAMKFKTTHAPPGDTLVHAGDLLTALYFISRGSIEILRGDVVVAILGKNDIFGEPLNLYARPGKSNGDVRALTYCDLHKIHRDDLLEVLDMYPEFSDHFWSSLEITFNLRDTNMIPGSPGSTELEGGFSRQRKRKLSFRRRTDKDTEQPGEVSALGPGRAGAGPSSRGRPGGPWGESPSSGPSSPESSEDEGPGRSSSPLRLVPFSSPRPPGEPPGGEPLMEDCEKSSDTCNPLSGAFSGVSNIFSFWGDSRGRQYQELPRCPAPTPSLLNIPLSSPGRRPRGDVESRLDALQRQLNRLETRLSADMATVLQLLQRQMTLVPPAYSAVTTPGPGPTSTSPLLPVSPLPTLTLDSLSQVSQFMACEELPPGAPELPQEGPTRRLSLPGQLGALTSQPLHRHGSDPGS
Experimental: (tail) current was investigated using Chinese Hamster Ovary (CHO) cells stably transfected with
hERG, employing the whole cell patch clamp technique.
hERG inhibition. Patch clamp experiments were carried out using FlyscreenP® robot. CHO cells
choline chloride, 5 mM KCl, 1 mM MgCl2(H2O)6, 10 mM HEPES, 10 mM glucose, pH 7.4) to give
cell density of ~ 0.5 million per mL, and transferred to the cell mixer on Flyscreen® 8500 robot
which keeps cell suspension in a ready-for-use condition.
KMeSO3, 5 mM MgCl2(H2O)6, 10 mM HEPES-KOH, 5 mM EGTA, 5 mM K2ATP at pH 7.2. Ionic
currents from hERG transfected cells were measured in the whole cell configuration. Once the whole
the hERG current. An EC NaCl solution (120 mM NaCl, 5 mM KCl, 1.8 mM CaCl2, 10 mM
HEPES, 10 mM glucose, pH 7.4) was added for control readings, which were measured for ~ 360 s
followed by compound addition.
continuously for ~ 600 seconds. For analysis purposes, the current of interest (IKr) was considered.
Results were expressed as absolute values and percent change from control. Percent inhibition was
calculated by comparing the IKr current before and after addition of test compound once a steady-
state current had been attained.

Chain of hGLP-1R (P43220 24-463): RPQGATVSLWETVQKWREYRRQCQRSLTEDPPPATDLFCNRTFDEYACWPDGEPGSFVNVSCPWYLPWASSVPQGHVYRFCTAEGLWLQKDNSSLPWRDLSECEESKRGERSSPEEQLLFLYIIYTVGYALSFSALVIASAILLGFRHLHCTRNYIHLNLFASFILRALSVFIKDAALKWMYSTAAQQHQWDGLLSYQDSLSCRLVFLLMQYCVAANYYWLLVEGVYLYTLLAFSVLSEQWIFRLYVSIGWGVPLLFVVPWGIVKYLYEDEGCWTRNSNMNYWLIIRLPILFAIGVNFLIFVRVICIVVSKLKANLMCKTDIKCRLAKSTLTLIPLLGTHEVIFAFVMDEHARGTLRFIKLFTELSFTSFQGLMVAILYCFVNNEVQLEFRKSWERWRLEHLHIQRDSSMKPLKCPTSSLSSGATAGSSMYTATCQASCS
Chain of CCR1 (h) (P32246 whole entry): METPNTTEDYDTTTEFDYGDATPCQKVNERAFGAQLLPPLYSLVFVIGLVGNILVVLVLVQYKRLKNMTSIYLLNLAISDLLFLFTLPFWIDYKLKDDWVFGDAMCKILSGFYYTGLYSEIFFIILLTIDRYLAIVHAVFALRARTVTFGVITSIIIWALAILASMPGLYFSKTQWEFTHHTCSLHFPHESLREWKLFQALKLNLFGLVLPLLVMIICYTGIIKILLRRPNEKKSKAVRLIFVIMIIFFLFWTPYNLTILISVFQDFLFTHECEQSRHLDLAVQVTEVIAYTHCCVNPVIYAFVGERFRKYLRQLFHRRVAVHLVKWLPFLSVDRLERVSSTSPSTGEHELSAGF
T9 sequence (P21452 whole entry): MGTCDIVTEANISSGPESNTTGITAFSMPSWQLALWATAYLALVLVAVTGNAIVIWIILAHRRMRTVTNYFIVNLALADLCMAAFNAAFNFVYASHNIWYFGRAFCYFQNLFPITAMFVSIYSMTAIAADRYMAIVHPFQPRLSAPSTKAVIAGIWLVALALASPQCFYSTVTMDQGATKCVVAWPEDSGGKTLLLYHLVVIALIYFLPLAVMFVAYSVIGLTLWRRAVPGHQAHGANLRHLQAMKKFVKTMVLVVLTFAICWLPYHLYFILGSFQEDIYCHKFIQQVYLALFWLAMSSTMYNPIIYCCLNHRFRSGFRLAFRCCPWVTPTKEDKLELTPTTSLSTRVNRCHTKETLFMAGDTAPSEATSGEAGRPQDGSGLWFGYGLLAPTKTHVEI
T1 sequence (P30542 whole entry): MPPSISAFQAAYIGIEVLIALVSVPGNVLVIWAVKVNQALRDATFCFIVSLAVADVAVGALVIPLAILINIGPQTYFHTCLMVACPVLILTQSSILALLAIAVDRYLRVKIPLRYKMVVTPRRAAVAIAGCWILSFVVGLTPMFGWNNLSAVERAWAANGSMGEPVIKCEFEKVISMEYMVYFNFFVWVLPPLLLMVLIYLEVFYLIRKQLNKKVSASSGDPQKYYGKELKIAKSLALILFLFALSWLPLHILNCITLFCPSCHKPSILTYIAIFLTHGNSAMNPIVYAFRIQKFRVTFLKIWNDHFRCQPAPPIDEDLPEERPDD
Chain of CYP2C9 (P11712 whole entry, canonical isoform): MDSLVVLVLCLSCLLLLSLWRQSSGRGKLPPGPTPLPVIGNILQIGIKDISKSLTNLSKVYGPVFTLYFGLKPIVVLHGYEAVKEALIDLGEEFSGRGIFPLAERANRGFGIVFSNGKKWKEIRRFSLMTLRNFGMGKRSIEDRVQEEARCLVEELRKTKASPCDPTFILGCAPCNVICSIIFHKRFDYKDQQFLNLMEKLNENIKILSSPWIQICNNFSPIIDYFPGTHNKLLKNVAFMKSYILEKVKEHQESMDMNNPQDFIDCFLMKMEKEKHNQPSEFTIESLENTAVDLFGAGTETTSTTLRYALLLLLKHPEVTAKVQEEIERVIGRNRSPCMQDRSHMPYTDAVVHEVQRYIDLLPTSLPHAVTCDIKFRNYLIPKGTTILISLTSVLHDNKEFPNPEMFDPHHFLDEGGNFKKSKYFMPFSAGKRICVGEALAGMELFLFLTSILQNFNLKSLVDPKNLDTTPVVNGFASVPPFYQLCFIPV
T3 sequence (P0DMS8 whole entry): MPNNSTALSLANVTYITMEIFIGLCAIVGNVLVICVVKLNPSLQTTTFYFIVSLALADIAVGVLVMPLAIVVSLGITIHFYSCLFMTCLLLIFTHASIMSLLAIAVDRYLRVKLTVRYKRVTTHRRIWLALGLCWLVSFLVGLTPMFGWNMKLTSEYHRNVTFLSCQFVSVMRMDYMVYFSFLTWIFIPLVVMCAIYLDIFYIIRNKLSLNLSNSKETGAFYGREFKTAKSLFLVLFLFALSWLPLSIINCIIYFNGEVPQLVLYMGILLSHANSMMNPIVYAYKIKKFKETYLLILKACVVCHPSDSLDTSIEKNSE
T2 sequence (P29274 whole entry): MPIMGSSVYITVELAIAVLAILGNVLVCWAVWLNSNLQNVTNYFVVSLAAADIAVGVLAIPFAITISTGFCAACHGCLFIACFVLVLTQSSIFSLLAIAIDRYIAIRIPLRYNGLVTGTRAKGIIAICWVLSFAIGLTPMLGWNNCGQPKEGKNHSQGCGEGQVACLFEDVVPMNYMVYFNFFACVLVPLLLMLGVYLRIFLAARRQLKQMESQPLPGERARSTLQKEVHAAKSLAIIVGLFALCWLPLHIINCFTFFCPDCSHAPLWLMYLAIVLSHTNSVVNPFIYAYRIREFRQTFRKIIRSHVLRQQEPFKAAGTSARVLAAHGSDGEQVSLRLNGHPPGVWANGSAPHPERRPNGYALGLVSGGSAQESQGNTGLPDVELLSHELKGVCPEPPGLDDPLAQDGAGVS
T8 sequence (P48039 whole entry): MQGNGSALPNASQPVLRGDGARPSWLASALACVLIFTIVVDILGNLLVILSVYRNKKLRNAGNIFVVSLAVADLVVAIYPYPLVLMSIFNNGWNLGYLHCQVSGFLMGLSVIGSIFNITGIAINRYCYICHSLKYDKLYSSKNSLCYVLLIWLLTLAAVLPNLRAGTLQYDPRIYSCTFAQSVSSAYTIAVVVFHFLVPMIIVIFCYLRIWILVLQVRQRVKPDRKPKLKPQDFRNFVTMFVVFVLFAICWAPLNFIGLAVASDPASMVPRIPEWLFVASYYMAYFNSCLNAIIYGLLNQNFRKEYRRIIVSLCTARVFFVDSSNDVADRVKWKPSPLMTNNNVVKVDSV
T10 sequence (P29371 whole entry): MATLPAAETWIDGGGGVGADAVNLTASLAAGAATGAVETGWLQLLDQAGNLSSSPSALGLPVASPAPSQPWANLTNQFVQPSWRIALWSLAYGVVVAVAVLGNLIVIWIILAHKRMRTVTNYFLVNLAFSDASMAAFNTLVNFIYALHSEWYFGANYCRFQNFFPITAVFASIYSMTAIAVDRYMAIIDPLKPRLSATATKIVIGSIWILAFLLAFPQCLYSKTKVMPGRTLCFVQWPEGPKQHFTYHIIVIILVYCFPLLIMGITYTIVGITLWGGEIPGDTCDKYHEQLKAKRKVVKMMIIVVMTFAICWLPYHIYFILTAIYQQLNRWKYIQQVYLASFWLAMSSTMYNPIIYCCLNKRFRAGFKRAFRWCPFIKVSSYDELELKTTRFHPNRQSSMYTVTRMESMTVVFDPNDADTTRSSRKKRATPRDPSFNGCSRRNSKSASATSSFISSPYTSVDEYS

FC(F)(F)c1ccc(-c2noc(CN3CCC[C@@H](CN4CCOCC4)C3)n2)cc1 [(S)-9, (+)-4-{[(3S)-1-({3-[4-(Trifluoromethyl)phenyl]-1,2,4-oxadiazol-5-yl}methyl)piperidin-3-yl]methyl}morpholine]
Insulin secreted (INS-1 β-cells; 0.1 nM test substance): 29 ng/mL | Insulin secreted (INS-1 β-cells; 1 nM test substance): 39 ng/mL | Insulin secreted (INS-1 β-cells; 10 nM test substance): 37 ng/mL | potentiation of insulin secretion stimulated by GLP-1 (in words) (EndoC-βH1 cells): similarly potentiate insulin secretion stimulated by GLP-1 | glucose handling after glucose load (Wistar rats): clearly improved glucose handling | glucose handling after glucose load, oral dosing [1]: orally active | glucose handling after glucose load (wild-type C57BL/6N mice; (S)-9, 2 g/kg glucose, 12-h fasted): improvement | glucose handling after glucose load (GLP-1R KO mice): devoid; also recorded: inactive | duration of the feeding effect after injection (male Wistar rats [2]; (S)-9 5 μg/kg icv): up to 2 h | effect on feeding (male Wistar rats [2]; (S)-9 5 μg/kg icv): decreased feeding

O=S(=O)(NC1CCN(Cc2nc(-c3ccc(C(F)(F)F)cc3)no2)CC1)c1ccccc1Cl [compound 1]
result of ExviTech library screening (hGLP-1R): putative modulator of the GLP-1R

FC(F)(F)c1ccc(-c2noc(CN3CCCC(CN4CCOCC4)C3)n2)cc1 (stereo not shown) [compound 9, 4-{[1-({3-[4-(Trifluoromethyl)phenyl]-1,2,4-oxadiazol-5-yl}methyl)piperidin-3-yl]methyl}morpholine]
displacement of the specific binding (panel of 54 GPCRs): lower than 50% | glucose handling after ip glucose load (wild-type C57BL/6N mice; 9 0.1 mg/kg ip, ip 2 g/kg glucose, 0.1 mg/kg): improved glucose handling | glucose handling after oral glucose load (wild-type C57BL/6N mice; 9 0.1 or 1 mg/kg ip, oral 2 g/kg glucose): improved glucose handling | anxiety-like behavior in the elevated plus-maze (male Wistar rats [3]): does not induce anxiety-like behavior; also recorded: did not result in the emergence of anxiety-like behaviors nor hypolocomotion | half-life at 1 µM [4]: > 30 min | IC50 (CYP2C9): 80 µM | AUC(0-inf) at 24 h ([5]; IV 2 mg/kg, mean ± SD, N = 4): 311 ± 12.9 ng·h/mL | AUC(0-t) at 24 h ([5]; IV 2 mg/kg, mean ± SD, N = 4): 278 ± 20 ng·h/mL | C0 ([5]; IV 2 mg/kg, mean ± SD, N = 4): 492 ± 81.9 ng/mL | clearance at 24 h ([5]; IV 2 mg/kg, mean ± SD, N = 4): 107 ± 4.58 mL/min/kg | half-life at 24 h ([5]; IV 2 mg/kg, mean ± SD, N = 4): 195 ± 61.8 min | Vd at 24 h ([5]; IV 2 mg/kg, mean ± SD, N = 4, read-out: Vss): 18.1 ± 6.62 L/kg | bioavailability ([5]; PO 10 mg/kg vs IV 2 mg/kg): 39% | bioavailability at 24 h ([5]; PO 10 mg/kg vs IV 2 mg/kg): 38.9 ± 9.52% | AUC(0-inf) at 24 h ([5]; PO 10 mg/kg, mean ± SD, N = 4): 644 ± 267 ng·h/mL | AUC(0-t) at 24 h ([5]; PO 10 mg/kg, mean ± SD, N = 4): 540 ± 132 ng·h/mL | Cmax at 24 h ([5]; PO 10 mg/kg, mean ± SD, N = 4): 185 ± 14.5 ng/mL | Tmax at 24 h ([5]; PO 10 mg/kg, mean ± SD, N = 4): 49.8 ± 17.4 min | half-life at 24 h ([5]; PO 10 mg/kg, mean ± SD, N = 4): 172 ± 113 min | Tmax ([5]; oral route, 10 mg/kg, read-out: time of maximal concentration post-ingestion (converted)): 50 min | inhibition at 10 µM (A1 (h)): 5% | inhibition at 10 µM (A2A (h)): -3% | inhibition at 10 µM (A3 (h)): -20% | inhibition at 10 µM (B2 (h)): 8% | inhibition at 10 µM (CCR1 (h)): 4% | inhibition at 10 µM (GAL2 (h)): 0% | inhibition at 10 µM (H1 (h)): -4% | inhibition at 10 µM (H2 (h)): -13% | inhibition at 10 µM (MT1 (ML1A) (h)): -3% | inhibition at 10 µM (NK2 (h)): 19% | inhibition at 10 µM (NK3 (h)): -8% | inhibition at 10 µM (β1 (h)): 3% | potentiation of feeding inhibition induced by exendin-4 (in words) (male Wistar rats [2]; 9 1 μg/kg icv): potentiates; also recorded: potentiate the feeding inhibition; also recorded: enhancing satiety induced by the GLP-1R agonist exendin-4 | IC50 (hERG channel): 4.13 µM | hERG inhibition (in words) (hERG channel): weak inhibitor of the hERG channel at micromolar concentrations | Inhibition (%), Mean (hERG channel; 1 µM): 29.7% | Inhibition (%), single values (hERG channel; 1 µM): 27.0% and 32.3% | Inhibition (%), Mean (hERG channel; 10 µM): 62.3% | Inhibition (%), single values (hERG channel; 10 µM): 52.1% and 72.5% | Inhibition (%), Mean (hERG channel; 30 µM): 80.5% | Inhibition (%), single values (hERG channel; 30 µM): 78.0% and 83.0%
